This note sets out measurements from patent US9102673B2, “Substituted pyrrolo[3,2-c]pyridines as TrkA kinase inhibitors” (Merck Sharp & Dohme Corp., priority 2011, dated 2015).

One may read the EC50 as the concentration needed to bring the measured effect to its halfway point.

SMILES strings stand for the structures.

The target of the assay is T1, TrkA (Homo sapiens, UniProt P04629).
T1 construct: purchased Cell Signaling
T1 sequence (P04629 33-796): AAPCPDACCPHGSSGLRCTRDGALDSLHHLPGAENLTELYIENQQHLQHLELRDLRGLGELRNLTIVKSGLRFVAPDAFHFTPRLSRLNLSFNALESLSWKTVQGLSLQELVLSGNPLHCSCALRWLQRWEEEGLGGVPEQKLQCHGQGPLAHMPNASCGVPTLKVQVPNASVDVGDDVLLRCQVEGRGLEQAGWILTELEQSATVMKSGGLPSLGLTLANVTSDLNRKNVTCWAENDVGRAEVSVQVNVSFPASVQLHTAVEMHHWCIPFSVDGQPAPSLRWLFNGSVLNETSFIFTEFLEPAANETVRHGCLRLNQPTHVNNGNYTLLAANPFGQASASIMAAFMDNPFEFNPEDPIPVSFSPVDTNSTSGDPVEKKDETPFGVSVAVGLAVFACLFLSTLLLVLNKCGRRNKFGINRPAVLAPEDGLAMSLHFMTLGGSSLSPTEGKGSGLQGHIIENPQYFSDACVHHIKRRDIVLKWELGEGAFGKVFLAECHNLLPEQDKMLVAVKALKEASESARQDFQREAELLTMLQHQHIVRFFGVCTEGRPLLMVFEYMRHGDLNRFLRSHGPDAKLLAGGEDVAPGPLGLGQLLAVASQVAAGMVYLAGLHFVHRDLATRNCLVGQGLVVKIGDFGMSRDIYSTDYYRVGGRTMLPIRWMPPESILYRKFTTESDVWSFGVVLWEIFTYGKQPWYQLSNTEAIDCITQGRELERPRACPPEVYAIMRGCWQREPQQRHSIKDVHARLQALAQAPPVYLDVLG
Kind of assay: TrkA kinase activity: phosphorylation of a fluorescently labeled peptide substrate (Caliper EZReader II). Format: biochemical. The note with it: [E]=0.37 nM, [S]=1 μM, [ATP]=2 mM, room temperature, 3 hours; read-out: Trk A EC50. On the procedure: TrkA kinase activity was measured as the ability of the enzyme to phosphorylate a fluorescently labeled peptide substrate. Buffer salts, reagents, and fluorescently labeled peptides were purchased from Carna Biosciences and were of the highest quality available (QSS Assist TRICA_MSA Kit). Enzyme was purchased from Cell Signaling, and was used without further purification. 384-well round bottom assay plates were prepared by the addition of […] of a DMSO solution of compound at various concentrations to final inhibitor concentrations ranging from 100 μM to 0.2 μM. Next, assay buffer (10 μl) containing substrate and ATP were added, followed by addition of 10 μl of enzyme in assay buffer. Final assays concentrations were: [E]=0.37 nM, [S]=1 μM, [ATP]=2 mM. The reactions were incubated at room temperature for 3 hours resulting in approximately 15% substrate phosphorylation and were terminated by the addition of 5 μl of stop buffer. Substrates and products were separated on the Caliper EZReader II (Caliper LifeSciences, Inc.) using standard separation protocols. The percent inhibition was calculated for each compound concentration and the IC50 was determined using equation 1.
As to `CCOc1cccc(-c2nccc3c(CCOc4ccc(OC(F)(F)F)cc4)c(C(=O)O)[nH]c23)c1` [Example 91, 7-(3-ethoxyphenyl)-3-{2-[4-(trifluoromethoxy)phenoxy]ethyl}-1H-pyrrolo[2,3-d]pyridine-2-carboxylic acid], the EC50 was found to be 34.9 nM.
For `O=C(O)c1cc2cc(-c3cn[nH]c3)ccc2n1CCOc1ccc(OC(F)(F)F)cc1` [Example 76, 5-(1H-pyrazol-4-yl)-1-{2-[4-(trifluoromethoxy)phenoxy]ethyl}-1H-indole-2-carboxylic acid], the EC50 was 28.5 nM.
The value for `CCOc1cccc(-c2nccn3c(CCOc4ccc(OC(F)(F)F)cc4)c(C(=O)O)nc23)c1` [Example 92, 8-(3-ethoxyphenyl)-3-{2-[4-(trifluoromethoxy)phenoxy]ethyl}imidazo[1,2-a]pyrazine-2-carboxylic acid] was 1210 nM.
Take `CCOc1cccc(-c2nccc3c2cc(C(=O)O)n3CCOc2ccc(Oc3nccs3)cc2)c1` [Example 73, 4-(3-ethoxyphenyl)-1-{2-[4-(1,3-thiazol-2-yloxy)phenoxy]ethyl}-1H-pyrrolo[3,2-c]pyridine-2-carboxylic acid]: the EC50 was 776 nM.
As for `O=C(O)c1cc2cc(-c3cncnc3)ccc2n1CCOc1ccc(OC(F)(F)F)cc1` [Example 78, 5-pyrimidin-5-yl-1-{2-[4-(trifluoromethoxy)phenoxy]ethyl}-1H-indole-2-carboxylic acid], the figure is 38.7 nM.
For the compound `CCCNc1nccc(-c2nccc3c2cc(C(=O)O)n3CCOc2ccc(OC(F)(F)F)cc2)n1` [Example 58, 4-[2-(propylamino)pyrimidin-4-yl]-1-{2-[4-(trifluoromethoxy)phenoxy]ethyl}-1H-pyrrolo[3,2-c]pyridine-2-carboxylic acid], the EC50 was found to be 30700 nM.
Turning to `O=C(O)c1cc2cc(-c3cccnc3)ccc2n1CCOc1ccc(OC(F)(F)F)cc1` [Example 81, 5-pyridin-3-yl-1-{2-[4-(trifluoromethoxy)phenoxy]ethyl}-1H-indole-2-carboxylic acid], the EC50 was 469 nM.
In the case of `O=C(O)c1cc2c(-c3cccc4ncccc34)nccc2n1Cc1noc(-c2ccccc2)n1` [Example 16, 1-[(5-phenyl-1,2,4-oxadiazol-3-yl)methyl]-4-(quinolin-5-yl)-1H-pyrrolo[3,2-c]pyridine-2-carboxylic acid], the EC50 was 5360 nM.
For `CCCNc1ncc(-c2nccc3c2cc(C(=O)O)n3CCOc2ccc(OC(F)(F)F)cc2)s1` [Example 57, 4-[2-(propylamino)-1,3-thiazol-5-yl]-1-{2-[4-(trifluoromethoxy)phenoxy]ethyl}-1H-pyrrolo[3,2-c]pyridine-2-carboxylic acid], the EC50 is 162 nM.
In the case of `CCOc1cccc(-c2nccc3c2cc(C(=O)O)n3CCOc2ccc(C(F)(F)F)nc2)c1` [Example 38, 4-(3-Ethoxyphenyl)-1-(2-{[6-(trifluoromethyl)Pyridin-3-yl]oxy}ethyl)-1H-pyrrolo[3,2-c]pyridine-2-carboxylic acid], the EC50 is 3920 nM.
